Drawing on patent publication US9598423B2 (BRISTOL-MYERS SQUIBB COMPANY, priority 2013, dated 2017), this text covers IC50 for 27 molecules.

Usually IC50 stands for the concentration needed to halve the response being measured.

Read-outs that look alike come from different tables or passages of the source.

The target of one experiment is CK1ε (Homo sapiens (Human), UniProt P49674). In words: CK1ε kinase assay (Caliper LABCHIP electrophoretic separation of fluoresceinated peptide substrate and product). It counts as biochemical. The settings on record: 200 pM CK1ε, 50 μM ATP, 1.5 μM peptide substrate, 22 hours at room temperature; read-out: CK1ε (IC50). The procedure, abridged:
(§1)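 Incubated for twenty-two hours at ambient temperature, then quenched with EDTA and analyzed by electrophoretic separation of unphosphorylated and phosphorylated peptide.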

For the next experiment, the target named is CK1δ (Homo sapiens (Human), UniProt P48730). The experiment in a line: CK1δ kinase assay (Caliper LABCHIP electrophoretic separation of fluoresceinated peptide substrate and product). It counts as biochemical. The procedure, abridged:
as §1

Setting [1] is: 200 pM CK1δ, 50 μM ATP, 1.5 μM peptide substrate, 22 hours at room temperature, read-out: CK1δ (IC50).

Sequence of CK1δ (P48730 whole entry): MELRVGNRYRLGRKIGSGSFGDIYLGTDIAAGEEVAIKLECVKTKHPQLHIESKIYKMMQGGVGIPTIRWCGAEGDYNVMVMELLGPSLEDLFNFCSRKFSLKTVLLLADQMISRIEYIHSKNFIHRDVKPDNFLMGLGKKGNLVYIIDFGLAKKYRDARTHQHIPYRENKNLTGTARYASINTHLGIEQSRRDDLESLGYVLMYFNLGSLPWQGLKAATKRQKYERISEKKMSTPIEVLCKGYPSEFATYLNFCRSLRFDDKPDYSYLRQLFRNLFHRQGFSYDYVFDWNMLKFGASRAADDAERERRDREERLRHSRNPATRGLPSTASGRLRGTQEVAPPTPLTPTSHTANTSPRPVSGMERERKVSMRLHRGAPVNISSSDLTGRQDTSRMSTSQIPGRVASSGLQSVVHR
Sequence of CK1ε (P49674 whole entry): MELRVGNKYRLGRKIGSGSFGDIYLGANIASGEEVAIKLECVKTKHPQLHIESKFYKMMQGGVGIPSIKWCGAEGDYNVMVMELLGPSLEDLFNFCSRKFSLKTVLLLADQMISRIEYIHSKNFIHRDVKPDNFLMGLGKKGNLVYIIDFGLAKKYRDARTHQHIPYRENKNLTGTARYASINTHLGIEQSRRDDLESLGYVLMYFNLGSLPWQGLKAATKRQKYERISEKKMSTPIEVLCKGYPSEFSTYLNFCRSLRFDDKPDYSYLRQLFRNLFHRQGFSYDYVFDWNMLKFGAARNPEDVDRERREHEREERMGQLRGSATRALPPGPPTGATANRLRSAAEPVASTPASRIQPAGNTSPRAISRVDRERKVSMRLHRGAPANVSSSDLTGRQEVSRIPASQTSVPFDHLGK

Regarding `NC(=O)c1c(-c2cccc(F)c2)nn2c1CN(C(=O)Nc1ccc(Cl)c(Cl)c1)CC2` [Compound 49, N^5-(3,4-Dichlorophenyl)-2-(3-fluorophenyl)-6,7-dihydropyrazolo[1,5-a]pyrazine-3,5(4H)-dicarboxamide], the IC50 on CK1ε and at CK1δ (setting [1]) was 0.01 to 10 nM each time.

Take `CC(C)OC(=O)N1CCC(NC(=O)N2CCn3nc(-c4cccc(F)c4)c(C(N)=O)c3C2)CC1` [Compound 100, Isopropyl 4-(3-carbamoyl-2-(3-fluorophenyl)-4,5,6,7-tetrahydropyrazolo[1,5-a]pyrazine-5-carboxamido)piperidine-1-carboxylate]: the IC50 on CK1ε and at CK1δ (setting [1]) was 0.01 to 10 nM each time.

On to `N#Cc1ccc(NC(=O)N2CCn3nc(-c4cc(F)c5cn[nH]c5c4)c(C(N)=O)c3C2)cc1Cl` [Compound 323, N^5-(3-Chloro-4-cyanophenyl)-2-(4-fluoro-1H-indazol-6-yl)-6,7-dihydropyrazolo[1,5-a]pyrazine-3,5(4H)-dicarboxamide], for which the half-inhibitory concentration (IC50) at CK1ε lay within 0.01 to 10 nM; at CK1δ (setting [1]) it was 10 to 100 nM.

In the case of `Cc1nc2cc(-c3nn4c(c3C(N)=O)CN(C(=O)Nc3ccc(C#N)cc3)CC4)cc(Cl)c2o1` [Compound 311, 2-(7-Chloro-2-methylbenzo[d]oxazol-5-yl)-N^5-(4-cyanophenyl)-6,7-dihydropyrazolo[1,5-a]pyrazine-3,5(4H)-dicarboxamide], the IC50 on CK1ε and at CK1δ (setting [1]) was 0.01 to 10 nM in each case.

As to `N#Cc1ccc(NC(=O)N2Cc3c(C(N)=O)c(-c4ccc(F)c(Cl)c4)nn3CC23CC3)cc1C(F)(F)F` [Compound 345, 2′-(3-Chloro-4-fluorophenyl)-N^5′-(4-cyano-3-(trifluoromethyl)phenyl)-4′H-spiro[cyclopropane-1,6′-pyrazolo[1,5-a]pyrazine]-3′,5′(7′H)-dicarboxamide], the IC50 lay in the range of 10 to 100 nM at CK1ε and 10 to 100 nM at CK1δ (CK1δ (IC50, nM)).

Consider `NC(=O)c1c(-c2cccc(F)c2)nn2c1CN(C(=O)Nc1ccc3ccccc3c1)CC2` [Compound 59, 2-(3-Fluorophenyl)-N^5-(naphthalen-2-yl)-6,7-dihydropyrazolo[1,5-a]pyrazine-3,5(4H)-dicarboxamide], for which the concentration for half-maximal inhibition (IC50) at CK1ε and at CK1δ (setting [1]) was 0.01 to 10 nM throughout.

In the case of `N#Cc1ccc(NC(=O)N2CCn3nc(-c4ccc(F)c(Cl)c4)c(C(N)=O)c3C2)cc1Cl` [Compound 203, N^5-(3-Chloro-4-cyanophenyl)-2-(3-chloro-4-fluorophenyl)-6,7-dihydropyrazolo[1,5-a]pyrazine-3,5(4H)-dicarboxamide], the IC50 at CK1ε and at CK1δ (setting [1]) was 0.01 to 10 nM each time.

As to `Cc1ccc(-c2nn3c(c2C(N)=O)CN(C(=O)Nc2ccc(C#N)c(F)c2)CC3)cc1Cl` [Compound 255, 2-(3-Chloro-4-methylphenyl)-N^5-(4-cyano-3-fluorophenyl)-6,7-dihydropyrazolo [1,5-a]pyrazine-3,5(4H)-dicarboxamide], the half-inhibitory concentration (IC50) on CK1ε and at CK1δ (setting [1]) was 0.01 to 10 nM in each case.

With `N#Cc1ccc(NC(=O)N2CCn3nc(-c4cc(Cl)c5[nH]ncc5c4)c(C(N)=O)c3C2)cc1F` [Compound 316, 2-(7-Chloro-1H-indazol-5-yl)-N^5-(4-cyano-3-fluorophenyl)-6,7-dihydropyrazolo[1,5-a]pyrazine-3,5(4H)-dicarboxamide], the IC50 at CK1ε and at CK1δ (setting [1]) was 0.01 to 10 nM each time.

Regarding `NC(=O)c1c(-c2ccc(F)c(Cl)c2)nn2c1CN(C(=O)Nc1cc(Cl)cc(Cl)c1)CC2` [Compound 173, 2-(3-Chloro-4-fluorophenyl)-N^5-(3,5-dichlorophenyl)-6,7-dihydropyrazolo[1,5-a] pyrazine-3,5(4H)-dicarboxamide], the IC50 on CK1ε and on CK1δ (setting [1]) was 0.01 to 10 nM each time.

With `Cc1n[nH]c2c(Cl)cc(-c3nn4c(c3C(N)=O)CN(C(=O)Nc3ccc(C#N)cc3)CC4)cc12` [Compound 320, 2-(7-Chloro-3-methyl-1H-indazol-5-yl)-N^5-(4-cyanophenyl)-6,7-dihydropyrazolo[1,5-a]pyrazine-3,5(4H)-dicarboxamide], the IC50 at CK1ε and at CK1δ (setting [1]) was 0.01 to 10 nM in each case.

In the case of `COc1cc(NC(=O)N2CCn3nc(-c4cccc(F)c4)c(C(N)=O)c3C2)cc(OC)c1` [Compound 56, N^5-(3,5-Dimethoxyphenyl)-2-(3-fluorophenyl)-6,7-dihydropyrazolo[1,5-a]pyrazine-3,5(4H)-dicarboxamide], the IC50 on CK1ε and at CK1δ (setting [1]) was 0.01 to 10 nM throughout.

Consider `N#Cc1ccc(NC(=O)N2CCn3nc(-c4cc(Cl)c(F)c(Cl)c4)c(C(N)=O)c3C2)cc1` [Compound 259, N^5-(4-Cyanophenyl)-2-(3,5-dichloro-4-fluorophenyl)-6,7-dihydropyrazolo[1,5-a]pyrazine-3,5(4H)-dicarboxamide], for which the half-maximal inhibitory concentration (IC50) at CK1ε and on CK1δ (setting [1]) was 0.01 to 10 nM throughout.

On to `N#Cc1ccc(NC(=O)N2Cc3c(C(N)=O)c(-c4ccc(F)c(Cl)c4)nn3CC23CC3)cc1` [Compound 343, 2′-(3-Chloro-4-fluorophenyl)-N^5′-(4-cyanophenyl)-4′H-spiro[cyclopropane-1,6′-pyrazolo[1,5-a]pyrazine]-3′,5′(7′H)-dicarboxamide], for which the IC50 at CK1ε and at CK1δ (setting [1]) was 10 to 100 nM each time.

Regarding `N#Cc1ccc(NC(=O)N2CCn3nc(-c4ccc(F)c(F)c4)c(C(N)=O)c3C2)cc1F` [Compound 236, N^5-(4-Cyano-3-fluorophenyl)-2-(3,4-difluorophenyl)-6,7-dihydropyrazolo[1,5-a] pyrazine-3,5(4H)-dicarboxamide], the half-inhibitory concentration (IC50) on CK1ε and on CK1δ (setting [1]) was 0.01 to 10 nM in each case.

For the molecule `NC(=O)c1c(-c2cccc(F)c2)nn2c1CN(C(=O)Nc1cc(F)c(F)c(F)c1)CC2` [Compound 70, 2-(3-Fluorophenyl)-N^5-(3,4,5-trifluorophenyl)-6,7-dihydropyrazolo[1,5-a]pyrazine-3,5(4H)-dicarboxamide], the half-maximal inhibitory concentration (IC50) at CK1ε and on CK1δ (setting [1]) was 0.01 to 10 nM each time.

For `N#Cc1ccc(NC(=O)N2CCn3nc(-c4cccc(F)c4)c(C(N)=O)c3C2)cc1C(F)(F)F` [Compound 38, N^5-(4-Cyano-3-(trifluoromethyl)phenyl)-2-(3-fluorophenyl)-6,7-dihydropyrazolo[1,5-a]pyrazine-3,5(4H)-dicarboxamide], the 50% inhibitory concentration (IC50) at CK1ε and on CK1δ (setting [1]) was 0.01 to 10 nM throughout.

With `Cc1cc(-c2nn3c(c2C(N)=O)CN(C(=O)Nc2ccc4c(c2)CS(=O)(=O)C4)CC3)ccc1F` [Compound 246, N^5-(2,2-Dioxido-1,3-dihydrobenzo[c]thiophen-5-yl)-2-(4-fluoro-3-methylphenyl)-6,7-dihydropyrazolo[1,5-a] pyrazine-3,5(4H)-dicarboxamide], the IC50 on CK1ε and at CK1δ (setting [1]) was 0.01 to 10 nM throughout.

On to `COc1ccc(NC(=O)N2CCn3nc(-c4cccc(F)c4)c(C(N)=O)c3C2)cc1Cl` [Compound 67, N^5-(3-Chloro-4-methoxyphenyl)-2-(3-fluorophenyl)-6,7-dihydropyrazolo[1,5-a]pyrazine-3,5(4H)-dicarboxamide], for which the IC50 on CK1ε and at CK1δ (setting [1]) was 0.01 to 10 nM each time.

As to `Cc1nc(-c2ccc(NC(=O)N3CCn4nc(-c5cccc(Cl)c5)c(C(N)=O)c4C3)cc2)cs1` [Compound A46, 2-(3-Chlorophenyl)-N^5-(4-(2-methylthiazol-4-yl)phenyl)-6,7-dihydropyrazolo[1,5-a]pyrazine-3,5(4H)-dicarboxamide], the IC50 on CK1ε and at CK1δ (setting [1]) was 0.01 to 10 nM each time.

As for `N#Cc1ccc(NC(=O)N2CCn3nc(-c4cccc(Cl)c4Cl)c(C(N)=O)c3C2)cc1` [Compound 287, N^5-(4-Cyanophenyl)-2-(2,3-dichlorophenyl)-6,7-dihydropyrazolo[1,5-a] pyrazine-3,5(4H)-dicarboxamide], the IC50 on CK1ε is 0.01 to 10 nM; at CK1δ (setting [1]) it was 10 to 100 nM.

Take `Cc1ccc(-c2nn3c(c2C(N)=O)CN(C(=O)Nc2ccc(C#N)cc2)CC3)cc1C` [Compound 282, N^5-(4-Cyanophenyl)-2-(3,4-dimethylphenyl)-6,7-dihydropyrazolo[1,5-a] pyrazine-3,5(4H)-dicarboxamide]: the IC50 on CK1ε and at CK1δ (setting [1]) was 0.01 to 10 nM in each case.

On to `CC1CN(C(=O)Nc2ccc(C#N)cc2)Cc2c(C(N)=O)c(-c3cccc(Cl)c3)nn21` (stereo not drawn) [Compound A13, 2-(3-Chlorophenyl)-N^5-(4-cyanophenyl)-7-methyl-6,7-dihydropyrazolo[1,5-a]pyrazine-3,5(4H)-dicarboxamide], for which the IC50 at CK1ε and on CK1δ (setting [1]) was 0.01 to 10 nM each time.

With `NC(=O)c1c(-c2cc(F)cc(Cl)c2)nn2c1CN(C(=O)Nc1ccc(Cl)c(Cl)c1)CC2` [Compound 217, 2-(3-Chloro-5-fluorophenyl)-N^5-(3,4-dichlorophenyl)-6,7-dihydropyrazolo[1,5-a] pyrazine-3,5(4H)-dicarboxamide], the half-inhibitory concentration (IC50) at CK1ε and at CK1δ (setting [1]) was 0.01 to 10 nM throughout.

With `NC(=O)c1c(-c2ccc(Cl)c(Cl)c2)nn2c1CN(C(=O)Nc1ccc(Cl)c(Cl)c1)CC2` [Compound 209], the 50% inhibitory concentration (IC50) at CK1ε and on CK1δ (setting [1]) was 0.01 to 10 nM each time.

Consider `NC(=O)c1c(-c2cc(Cl)c(F)c(Cl)c2)nn2c1CN(C(=O)Nc1cc(Cl)cc(Cl)c1)CC2` [Compound 261, 2-(3,5-Dichloro-4-fluorophenyl)-N^5-(3,5-dichlorophenyl)-6,7-dihydropyrazolo[1,5-a] pyrazine-3,5(4H)-dicarboxamide], for which the IC50 at CK1ε and on CK1δ (setting [1]) was 0.01 to 10 nM each time.

Regarding `N#Cc1ccc(NC(=O)N2CCn3nc(-c4ccc5c(c4)OCO5)c(C(N)=O)c3C2)cc1` [Compound 277, 2-(Benzo[d][1,3]dioxol-5-yl)-N^5-(4-cyanophenyl)-6,7-dihydropyrazolo[1,5-a] pyrazine-3,5(4H)-dicarboxamide], the 50% inhibitory concentration (IC50) on CK1ε was in the range of 0.01 to 10 nM; on CK1δ (setting [1]), 10 to 100 nM.
